In PMC11641365, “Evaluation of In Vitro Biological Activity of Flavanone/Chromanone Derivatives: Molecular Analysis of Anticancer Mechanisms in Colorectal Cancer” (International Journal of Molecular Sciences, 2024):

Assays:
Assay type in all cases: cell-based, human
SW620 [1] = assay: MTT test after pre-incubation with antioxidants NAC or Trolox; conditions: vs cells without antioxidant pre-incubation
Method: Moreover, the elevation of ROS levels was accompanied by a decrease in intracellular GSH. To investigate the role of ROS in the cytotoxic activity of flavonoid derivatives against cancer cells, LoVo cancer cells were pre-treated with antioxidants, NAC or a water-soluble derivative of vitamin E (Trolox), for 1 h before exposure to the studied compounds. Subsequently, the MTT assay was performed.
To elucidate the involvement of ROS in the cytotoxic effects of the investigated compounds, cells were pre-treated with the vitamin E (Trolox, Sigma-Aldrich, St. Louis, MO, USA) or N-Acetylcysteine (NAC) antioxidants for 1 h. Cells were seeded into sterile, colorless 96-well microplates at a density of 6–8 × 10^3 cells/mL, contingent upon the cell line. Following a 24 h culture period, Trolox or NAC was added at a final concentration of 50 μM and 3 mM, respectively. After 1 h of incubation, the antioxidants were removed by washing, and test compounds were administered at appropriate concentrations (10–200 μM) in fresh cell culture medium, followed by a 24 h incubation. The MTT assay was then conducted under identical experimental conditions, as detailed in Section 2.2.

Caco-2 [2] = assay: Autophagy induction, monodansylcadaverine (MDC) fluorescence; conditions: compound at IC50, 24 h, vs control
Method: Autophagy induction in cells treated with the tested drugs was determined by measuring Monodansylcadaverine (MDC; Sigma-Aldrich; St. Louis, MO, USA) fluorescence according to a modified method described by Vázquez. […] In the cell, MDC accumulates in lipid-rich cell membranes. It has been shown that MDC can be used as a dye for detecting autophagy, as it accumulates in autophagolysosomes as a result of interaction with membrane lipids.
Cells were seeded in black 96-well fluorometric microplates at a density of 10 × 10^3 cells/mL. […] Following compound incubation, the medium was removed, and the cell monolayers were washed twice with HBSS (140 mM NaCl, 5 mM KCl, 0.8 mM MgCl2, 1.8 mM CaCl2, 1 mM Na2HPO4, 10 mM HEPES, and 1% glucose). A solution of MDC at a final concentration of 50 μM was added to each well and incubated in a CO2 cell culture incubator at 37 °C for 15 min. After incubation with MDC, the probe was removed, and the cells were lysed with 50 μL of lysis buffer (10 mM TRIS-HCl; pH 8 containing 0.1% Triton X-100). After lysis, fluorescence was measured at an excitation wavelength of λex = 390 nm and an emission wavelength of λem = 460 nm using a Perkin-Elmer LS-5B spectrofluorometer (Waltham, MA, USA). In order to normalize the number of cells in individual samples, the amount of DNA was determined by adding 50 μL of EB (final concentration 0.2 mM) to each well after measuring the MCB fluorescence and measuring the EB fluorescence at an excitation wavelength of λex = 530 nm and an emission wavelength of λem = 590 nm. The results were calculated as the ratio of MDC fluorescence to EB fluorescence.

SW620 [3] = assay: Reactive nitrogen species level, DAF-FM probe; conditions: compound at IC50, 24 h
Method: (§1) Diaminofluorescein-FM diacetate (DAF-FM diacetate, Invitrogen, Carlsbad, CA, USA), a cell-permeable fluorescent probe, is widely utilized for the detection and quantification of reactive nitrogen species (RNS), primarily nitric oxide (NO). […] Upon interaction with NO, however, it undergoes a chemical transformation resulting in the formation of a highly fluorescent benzotriazole derivative with excitation and emission maxima at 495 and 515 nm, respectively.
(§2) Cells were seeded in black 96-well fluorometric microplates at a density of 10 × 10^3 cells/mL. […] Following compound incubation, the medium was removed, and the cell monolayers were washed twice with HBSS (140 mM NaCl, 5 mM KCl, 0.8 mM MgCl2, 1.8 mM CaCl2, 1 mM Na2HPO4, 10 mM HEPES, and 1% glucose). […] Fluorescence measurements were conducted using a Perkin-Elmer LS-5B spectrofluorometer (MA, USA) at the following excitation and fluorescence emission wavelengths: λex = 495 nm/λem = 515 nm. The fluorescence intensity of control cells was arbitrarily assigned a value of 100%. The results were expressed as percentages of control, calculated by comparing the fluorescence intensity ratio of the test samples to controls (100%). The fluorescence of samples was denoted as Δf in relation to the control.

HT-29 = assay: Reactive nitrogen species level, DAF-FM probe; conditions: compound at IC50, 24 h
Method: as §1, §2

Caco-2 [4] = assay: Mitochondrial membrane potential (ΔΨm), JC-1 probe; conditions: compound at IC50, vs control
Excerpt: (§3) Changes in mitochondrial potential in cancer cells exposed to the tested derivatives were monitored using the fluorescent probe JC-1. In non-apoptotic cells, JC-1 aggregates emit red-orange fluorescence. During changes in mitochondrial membrane potential, such as those associated with the initiation of PCD stages (both hyperpolarization and depolarization of mitochondrial membranes), JC-1 is converted to monomers, emitting green fluorescence.
(§4) 5,5,6,6-Tetrachloro-1,1,3,3-tetraethylbenzimidazolylcarbocyanine iodide (JC-1) is one of the most reliable fluorescent probes used to assess changes in mitochondrial membrane potential (ΔΨ). In living cells with intact mitochondrial membranes, the lipophilic, cationic dye JC-1 penetrates the negatively charged mitochondrial matrix as a monomer, where it forms fluorescent aggregates with red-orange fluorescence (λex = 514 nm, λem = 590). […] The fluorescence ratio of aggregates (λem = 590 nm) and monomers (λem = 529 nm)—590 nm/529 nm—reflects the level of damage to the mitochondrial membrane.
(§5) Cells were seeded in black 96-well fluorometric microplates at a density of 10 × 10^3 cells/mL. […] Following treatment, the medium was removed, and the cell monolayers were washed twice with HBSS (140 mM NaCl, 5 mM KCl, 0.8 mM MgCl2, 1.8 mM CaCl2, 1 mM Na2HPO4, 10 mM HEPES, and 1% glucose). Then, 50 μL of a JC-1 solution in HBSS was added to each well, and the cells were incubated for 30 min in the dark at 37 °C (final JC-1 concentration 5 μM). After removing the fluorescent dye and replacing it with fresh HBSS, fluorescence measurements were taken using a Perkin-Elmer LS-5B spectrofluorometer (Perkin-Elmer LS-5B spectrofluorometer, Waltham, MA, USA). The excitation and emission wavelengths for JC-1 monomers were 514 nm and 529 nm, respectively, while for aggregates, they were 514 nm and 590 nm. The results were expressed as a percentage change in the fluorescence ratio of JC-1 aggregates to JC-1 monomers compared to the control, which was set at 100%.

HCT 116 = assay: Mitochondrial membrane potential (ΔΨm), JC-1 probe; conditions: compound at IC50, vs control
Excerpt: as §3, §4, §5

LoVo = assay: Mitochondrial membrane potential (ΔΨm), JC-1 probe; conditions: compound at IC50, vs control
Excerpt: as §3, §4, §5

Row | SMILES | Change of the IC50 value after pre-incubation with Trolox (SW620 [1]) | Increase in MDC fluorescence intensity (autophagy) (Caco-2 [2]) [%] | Change in RNS levels (SW620 [3]) | Change in RNS levels (HT-29) | Decrease in ΔΨm (depolarization) (Caco-2 [4]) | Change in mitochondrial membrane potential ΔΨm (HCT 116) | Decrease in ΔΨm (depolarization) (LoVo)
1 | O=C1/C(=C/c2ccccc2)C(c2ccccc2)Oc2ccccc21 (stereo not shown) [Compound 5] | Statistically significant increases in the IC50 value | – | – | – | – | – | –
2 | O=C1/C(=C/c2ccccc2)COc2ccccc21 [Compound 1] | – | 25 | significantly increased RNS levels | significantly increased RNS levels | ~ 30% | no statistically significant changes | ~ 20%
